The target in test [1] is T1, EGF (Homo sapiens, UniProt P01133). As to the kind of experiment: biochemical. As to conditions: binding affinity (KD) for EGF, linker modified peptide immobilized on CM5 chip, Biacore 3000, 25° C., HBS-EP, EGF 62.5-1000 nM, 1-to-1 Langmuir fit. A general note: SPR reads the build-up and loss of mass on a sensor chip optically.
Experimental: “Test Method A” refers to the following general surface plasmon resonance (SPR) binding assay. Target protein (e.g., EGF and TNF-□) is immobilized at 25° C. and diluted peptides are injected for 3 min at a flow rate of 10 μl/min at 25° C. Binding assay is performed according to detailed Test method A in Examples.
The following Test Method A was used for determining the binding affinity (KD) of SEQ ID NO: 1 for EGF and TNF-□□ Binding experiments were performed using Biacore 3000 optical biosensors equipped with research-grade CM5 sensor chips (GE Healthcare Bio-Sciences Corporation). The reagents used for the amine-coupling steps [(1-ethyl-3-(3-dimethylaminopropyl)-carbodiimide (EDC); N-hydroxysuccinimide (NHS); and ethanolamine hydrochloride-NaOH (1 M, pH 8.5)] were obtained from GE Healthcare Bio-Sciences Corporation. In order to efficiently immobilize the peptide on the sensor chips, a modified version of SEQ ID NO:1 was prepared by SPPS in which a “CK” amino acid linker sequence was added to the N-terminal end of the SEQ ID NO: 1 peptide (i.e. linker modified version of SEQ ID NO: 1 for immobilization being [sequence]). A standard coupling protocol was employed to immobilize the linker modified version of SEQ ID NO: 1 via the lysine residues. The immobilization was performed at 25° C. using HBS-EP as the running buffer. […]
The target of test [2] is T1, EGF. Put plainly: Dot blotting analysis, EGF spotted on membrane, probed with biotinylated peptide and Streptavidin-HRP. More on the design: Recombinant Human Epidermal Growth Factor (EGF); purchased Abcam plc, Cambridge, Mass. As to conditions: EGF 10 nM spotted; biotinylated peptide 10 ng/mL; Streptavidin-HRP, TMB. It counts as binding. As for the experimental part: EGF (1 microliter of a 10 nM solution in PBS was spotted a nitrocellulose membrane (obtained from Thermo Fisher Scientific) and the membrane was dried in air for about 30 minutes. The membrane was then incubated in 15 mL of blocking buffer (3 wt. % BSA in PBS) for one hour at room temperature. The membrane was washed three times (15 minutes for each wash) with 15 mL portions of fresh PBST. The washed membrane was incubated with Biotinylated SEQ ID NO: 1 [10 mL of a 10 ng/mL solution in blocking buffer (3 wt. % BSA in PBS)] with gentle agitation for one hour. The membrane was again washed three times (15 minutes for each wash) with 15 mL portions of fresh PBST. The washed membrane was incubated with Streptavidin-HRP [1:5000 dilution in 10 mL of the blocking buffer (3 wt. % BSA in PBS)] for 30 minutes with gentle agitation. Following the incubation, the membrane was washed three times (15 minutes for each wash) with 15 mL portions of fresh PBST. The washed membrane was incubated with 10 mL of the development solution for horseradish peroxidase (TMB-Blotting Substrate Solution, Pierce-Fisher Scientific) with gentle agitation. The color development was stopped by adding water.

Usually Kd stands for a measure of binding affinity in units of concentration. A higher Kd goes with lower affinity.

Ends that are not written are not given here.

T1 sequence (P01133 971-1023 limits assumed): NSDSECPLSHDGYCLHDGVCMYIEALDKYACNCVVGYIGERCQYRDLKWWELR

In turn, “Ac-YVSPGMKNVNWWSHWWHATD-NH2 [SEQ ID NO: 1]” displayed a Kd on EGF [1] of 700 nM.

As to “Biotinylated SEQ ID NO: 1: Biotinylated version of peptide SEQ ID NO: 1, obtained from GenScript (YVSPGMKNVNWWSHWWHATD; also: biotinylated, place not given here)”, in the test with EGF [2], the “Dot blot colour development at EGF application site (affinity for EGF)” value is recorded as “A dark spot developed”.

The values are drawn from US11034728B2, “Peptides for binding epidermal growth factor” (3M INNOVATIVE PROPERTIES COMPANY, priority 2016, dated 2021).
